Laboratory results: patent US20110200625A1, “PHARMACEUTICAL COMPOSITION” (priority 2010, published 2011)

Test: presence of drug in the epidermis after the composition is applied to the skin
Format: in vivo
Details: after the composition containing the drug has been applied to the skin
Source text: In the present invention, the Hsieh enhancer is used in a different way, that is, as a penetration-facilitator for delivery of drug to the dermal layer of the skin without significant, if any, systemic absorption of the drug into the blood stream of the user.

## CO[C@H]1C[C@@H]2CC[C@@H](C)[C@@](O)(O2)C(=O)C(=O)N2CCCC[C@H]2C(=O)O[C@H]([C@H](C)C[C@@H]2CC[C@@H](O)[C@H](OC)C2)CC(=O)[C@H](C)/C=C(\C)[C@@H](O)[C@@H](OC)C(=O)[C@H](C)C[C@H](C)/C=C/C=C/C=C/1C [rapamycin]
  drug observed to be present in the epidermis, time after application: 72 h
